Assay results reported in publication PMC6383519 (Cancer immunology, immunotherapy : CII, 2013).
Entries after “also recorded” stand apart in the source; their conditions may differ. Like-named read-outs stand apart in the source and are kept apart here.

How the values were obtained:
[1] = tested on: HLA-A2 molecule on T2 cells; assay: T2-cell binding; parameters: species or system human; conditions: for Actual binding: T2-A2 cells, peptide 12.5 μg/ml, overnight incubation, flow cytometry, mean fluorescence intensity; for T2-A2 binding (rank): ranking among 5 potential MUC1-C agonist epitopes
PBMCs of cancer patients = assay: Establishment of peptide-specific T-cell lines; format: cell-based, human; conditions: PBMCs of vaccinated cancer patients, autologous DCs pulsed with 20 μg/ml peptide
[2] = tested on: C1RA3 cells pulsed with the corresponding peptide; assay: Lysis of cells pulsed with the corresponding peptide; format: cell-based, human; conditions: T-cell lines from PBMCs of HLA-A3 patients vaccinated with PANVAC
[3] = tested on: MUC1 peptide-specific CD8+ T cells; assay: Tetramer staining; format: cell-based, human; conditions: Supplemental Fig. 3; for binding of T-cell line to corresponding tetramer: HLA-A3 tetramers; for binding of T-cell line to the control tetramer: negative control tetramer
[4] = tested on: MUC1-specific T-cell lines; format: cell-based, human
[5] = tested on: tumor cells endogenously expressing the native antigen; assay: Ranking of killing by peptide-specific CTL; format: cell-based, human; conditions: ranking among 5 potential MUC1-C agonist epitopes
[6] = tested on: MUC1-specific T-cell lines; assay: IFN-γ production by peptide-specific T-cell lines; format: cell-based, human; conditions: ranking among 5 potential MUC1-C agonist epitopes
[7] = HLA-A24, T-cell line T-C7A stimulated 24h with B-cells pulsed with the peptide
[8] = HLA-A24, T-cell line T-C7 stimulated 24h with B-cells pulsed with the peptide

ALAIVYLIAL [Peptide C1]
Actual binding [1]: 249 MFI

ALAIVYLIAL [Peptide C4]
generation of T-cell lines with the peptide (PBMCs of cancer patients): grew poorly

ALFIVYLIAK [Peptide C4A]
generation of T-cell lines with the peptide (PBMCs of cancer patients): could be derived
lysis of C1RA3 cells pulsed with the corresponding peptide [2]: seen
binding of T-cell line to corresponding tetramer [3]: 20.2%
binding of T-cell line to the control tetramer [3]: < 0.04%

APDTRPAPG [Peptide V2]
Actual binding [1]: 210 MFI
generation of T-cell lines with the peptide (PBMCs of cancer patients): could not be generated

KYHPMSEYAL [Peptide C6A]
IFN-γ ([4]; stimulation of the T-cell line generated with the C6A agonist peptide): 2,651 pg/ml/10^5 cells
generation of T-cell lines with the peptide (PBMCs of cancer patients): could be generated

KYTNPAVAL [Peptide C7A]
GM-CSF [4, 7]: 910 pg/ml/2.5 × 10^5 T cells
IFN-γ [4, 7]: 2,000 pg/ml/2.5 × 10^5 T cells
IL-2 [4, 7]: <2.4 pg/ml/2.5 × 10^5 T cells
IL-6 [4, 7]: 40 pg/ml/2.5 × 10^5 T cells
IL-8 [4, 7]: 360 pg/ml/2.5 × 10^5 T cells
IL-10 [4, 7]: 375 pg/ml/2.5 × 10^5 T cells
TNFα [4, 7]: 70 pg/ml/2.5 × 10^5 T cells
GM-CSF [4, 8]: 300 pg/ml/2.5 × 10^5 T cells
IFN-γ [4, 8]: 1,279 pg/ml/2.5 × 10^5 T cells
IL-2 [4, 8]: <2.4 pg/ml/2.5 × 10^5 T cells
IL-6 [4, 8]: 7.7 pg/ml/2.5 × 10^5 T cells
IL-8 [4, 8]: 7.3 pg/ml/2.5 × 10^5 T cells
IL-10 [4, 8]: 45 pg/ml/2.5 × 10^5 T cells
TNFα [4, 8]: 30 pg/ml/2.5 × 10^5 T cells
generation of T-cell lines with the peptide (PBMCs of cancer patients): could be generated

SLFRSPYEK [Peptide C5A]
generation of T-cell lines with the peptide (PBMCs of cancer patients): could be derived
lysis of C1RA3 cells pulsed with the corresponding peptide [2]: seen
binding of T-cell line to corresponding tetramer [3]: 16.2%
binding of T-cell line to the control tetramer [3]: < 0.04%

SLSYTNPAV [Peptide C3]
Actual binding [1]: 326 MFI

STAPPAHGV [Peptide V1]
Actual binding [1]: 166 MFI
generation of T-cell lines with the peptide (PBMCs of cancer patients): could not be generated

STDRSPYEK [Peptide C5]
generation of T-cell lines with the peptide (PBMCs of cancer patients): grew poorly

SYTNPAVAA [Peptide C7]
GM-CSF [4, 7]: 215 pg/ml/2.5 × 10^5 T cells
IFN-γ [4, 7]: 680 pg/ml/2.5 × 10^5 T cells
IL-2 [4, 7]: <2.4 pg/ml/2.5 × 10^5 T cells
IL-6 [4, 7]: <2.4 pg/ml/2.5 × 10^5 T cells
IL-8 [4, 7]: 112 pg/ml/2.5 × 10^5 T cells
IL-10 [4, 7]: 92 pg/ml/2.5 × 10^5 T cells
TNFα [4, 7]: 30 pg/ml/2.5 × 10^5 T cells
GM-CSF [4, 8]: 237 pg/ml/2.5 × 10^5 T cells
IFN-γ [4, 8]: 750 pg/ml/2.5 × 10^5 T cells
IL-2 [4, 8]: <2.4 pg/ml/2.5 × 10^5 T cells
IL-6 [4, 8]: 6.4 pg/ml/2.5 × 10^5 T cells
IL-8 [4, 8]: 6.8 pg/ml/2.5 × 10^5 T cells
IL-10 [4, 8]: 25 pg/ml/2.5 × 10^5 T cells
TNFα [4, 8]: 21 pg/ml/2.5 × 10^5 T cells
generation of T-cell lines with the peptide (PBMCs of cancer patients): grew poorly; also recorded: could be generated

YLAIVYLIAL [Peptide C1A]
Actual binding [1]: 245 MFI
T2-A2 binding (rank) [1]: 5
Level of killing by peptide-specific CTL (rank) [5]: 2
Level of IFN-γ produced by peptide-specific CTL (rank) [6]: 3

YLAPPAHGV [Peptide V1A]
Actual binding [1]: 486 MFI
generation of T-cell lines with the peptide (PBMCs of cancer patients): successfully generated

YLDTRPAPV [Peptide V2A]
Actual binding [1]: 647 MFI
generation of T-cell lines with the peptide (PBMCs of cancer patients): successfully generated

YLIALAVCQC [Peptide C2]
Actual binding [1]: 211 MFI

YLIALAVCQV [Peptide C2A]
Actual binding [1]: 299 MFI
T2-A2 binding (rank) [1]: 3
Level of killing by peptide-specific CTL (rank) [5]: 1
Level of IFN-γ produced by peptide-specific CTL (rank) [6]: 1

YLLVLVCVLV [Peptide C9A]
T2-A2 binding (rank) [1]: 4
Level of killing by peptide-specific CTL (rank) [5]: Negative
Level of IFN-γ produced by peptide-specific CTL (rank) [6]: Negative

YLSDVSVSDV [Peptide C8A]
T2-A2 binding (rank) [1]: 2
Level of killing by peptide-specific CTL (rank) [5]: Negative
Level of IFN-γ produced by peptide-specific CTL (rank) [6]: 4

YLSYTNPAV [Peptide C3A]
Actual binding [1]: 342 MFI
T2-A2 binding (rank) [1]: 1
Level of killing by peptide-specific CTL (rank) [5]: 3
Level of IFN-γ produced by peptide-specific CTL (rank) [6]: 2
